The supplement of paper PMC11619387
Converted amounts (≈) assume the structure as drawn. ± gives the standard deviation of the averaged measurements.

Experiments:
[1] = system: Pseudomonas aeruginosa PAO1-Xen41; assay: EC50 of growth/kill rate concentration-effect curve
Description: (§1)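 Time-kill assays of bioluminescent P. aeruginosa PAO1-Xen41 (start ~5e6 CFU/mL) in 96-well plates at 37 °C, 150 rpm. Luminescence was read hourly for 20 h in cation-adjusted Mueller-Hinton broth, either non-conditioned (MH broth with or without supplements) or conditioned by one of 13 CF-associated species, then filter-sterilised and nutrient-replenished. Growth/kill rates came from log-linear regression of the exponential phase at 9-10 antibiotic concentrations, and Hill (Emax) models were fitted with drc for each replicate.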

[2] = system: Pseudomonas aeruginosa PAO1-Xen41; assay: Hill coefficient of concentration-effect curve (unitless); higher = steeper concentration-effect curve
Description: as §1

[3] = system: Pseudomonas aeruginosa PAO1-Xen41; assay: Emax, maximal drug effect on net growth rate (fitted lower asymptote) (per hour (slope of log luminescence)); higher = weaker maximal killing (less negative)
Description: as §1

NC[C@H]1O[C@H](O[C@H]2[C@H](O)[C@@H](O[C@H]3O[C@H](CO)[C@@H](O)[C@H](N)[C@H]3O)[C@H](N)C[C@@H]2N)[C@H](N)C[C@@H]1O [tobramycin]
Conditions | EC50, [1] [µg/mL] | Emax, [3] | Hill coefficient, [2]
medium (conditioned by secondary species or non-conditioned control): A. baumannii | 0.257 ± 0.0043 (≈ 0.55 µM) | -0.121 ± 0.0078 | 16.7 ± 2.5
medium (conditioned by secondary species or non-conditioned control): A. fumigatus | 0.7033 ± 0.0034 (≈ 1.5 µM) | -0.188 ± 0.0083 | 4.28 ± 0.12
medium (conditioned by secondary species or non-conditioned control): A. xylosoxidans | 0.2759 ± 0.0025 (≈ 0.59 µM) | -0.157 ± 0.018 | 14.8 ± 1.3
medium (conditioned by secondary species or non-conditioned control): B. cepacia | 0.144 ± 0.0027 (≈ 0.308 µM) | -0.131 ± 0.015 | 10.6 ± 0.37
medium (conditioned by secondary species or non-conditioned control): C. albicans | 0.565 ± 0.011 (≈ 1.21 µM) | -0.214 ± 0.024 | 3.52 ± 0.41
medium (conditioned by secondary species or non-conditioned control): H. influenzae | 0.185 ± 0.033 (≈ 0.397 µM) | -0.126 ± 0.053 | 14.4 ± 6.6
medium (conditioned by secondary species or non-conditioned control): M. abcessus | 0.135 ± 0.02 (≈ 0.288 µM) | -0.095 ± 0.019 | 4.76 ± 2.6
medium (conditioned by secondary species or non-conditioned control): M. avium | 0.201 ± 0.0085 (≈ 0.429 µM) | -0.17 ± 0.019 | 9.2 ± 1.7
medium (conditioned by secondary species or non-conditioned control): M. catarrhalis | 0.145 ± 0.0072 (≈ 0.31 µM) | -0.134 ± 0.043 | 9.95 ± 1.6
medium (conditioned by secondary species or non-conditioned control): MH broth | 0.136 ± 0.024 (≈ 0.29 µM) | -0.122 ± 0.022 | 5.72 ± 2.2
medium (conditioned by secondary species or non-conditioned control): MH broth + ADC | 0.197 ± 0.0065 | -0.172 ± 0.018 | 11.3 ± 2.3
medium (conditioned by secondary species or non-conditioned control): MH broth + LHB + NAD | 0.138 ± 0.0033 | -0.116 ± 0.02 | 10.7 ± 1.3
medium (conditioned by secondary species or non-conditioned control): MH broth + glucose | 0.393 ± 0.0069 | -0.21 ± 0.017 | 3.39 ± 0.69
medium (conditioned by secondary species or non-conditioned control): R. mannitolilytica | 0.0784 ± 0.0077 (≈ 0.168 µM) | -0.107 ± 0.018 | 8.12 ± 2.7
medium (conditioned by secondary species or non-conditioned control): S. aureus | 0.0695 ± 0.0024 (≈ 0.149 µM) | -0.121 ± 0.018 | 10 ± 1.5
medium (conditioned by secondary species or non-conditioned control): S. maltophilia | 0.137 ± 0.0019 (≈ 0.293 µM) | -0.197 ± 0.021 | 6.76 ± 0.86
medium (conditioned by secondary species or non-conditioned control): S. pneumoniae | 0.471 ± 0.055 (≈ 1.01 µM) | -0.128 ± 0.032 | 12.4 ± 5.3
